{"source": "patent US8574831B2", "about": "“Mutational profiles in HIV-1 reverse transcriptase correlated with phenotypic drug resistance” (Virco N.V., priority 2000, dated 2013)", "test_system": "HIV with mutations in the HIV protease sequence", "experiment": "Phenotypic fold resistance to protease inhibitors, protease mutations 84A/84L/84C/54M/54L/54V in a background (Examples 8-13)", "assay_type": "cell-based, HIV-1", "summary_of_the_method": "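Fold-resistance equals chimeric-virus IC50 divided by IC50 of a parallel wild-type reference HIV-1 strain. Chimeras come from PCR-amplified PR/RT genes recombined into PR/RT-deleted HXB2 proviral DNA inside CD4+ T cells, then cultured with graded drug concentrations.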", "data": [{"smiles": "CC(C)c1nc(CN(C)C(=O)N[C@H](C(=O)N[C@@H](Cc2ccccc2)C[C@H](O)[C@H](Cc2ccccc2)NC(=O)OCc2cncs2)C(C)C)cs1", "note": "[Ritonavir, ritonavir]", "values": [{"measurement": "Fold change in IC50", "setting": "Table 12, V055199, genotype 10I + 33F + 54M + 90M", "result": 18.4, "unit": "fold"}, {"measurement": "Fold change in IC50", "setting": "Table 13, V19263, genotype 77I", "result": 0.4, "unit": "fold"}, {"measurement": "Fold change in IC50", "setting": "Table 13, V20160, genotype WT", "result": 0.6, "unit": "fold"}, {"measurement": "Fold change in IC50", "setting": "Table 13, V021667, genotype 10I", "result": 1.2, "unit": "fold"}, {"measurement": "Fold change in IC50", "setting": "Table 13, V030496, genotype 10I + 77I", "result": 0.5, "unit": "fold"}, {"measurement": "Fold change in IC50", "setting": "Table 13, V048868, genotype 10I + 54L + 71V + 77I + 90M", "result": 9.7, "unit": "fold"}, {"measurement": "Fold change in IC50", "setting": "Table 13, V048874, genotype 10I + 33F + 54L + 71V + 77I + 90M", "result": 21.3, "unit": "fold"}, {"measurement": "Fold change in IC50", "setting": "Table 13, V048875, genotype 10I + 33F + 54L + 71V + 77I + 90M", "result": 25.1, "unit": "fold"}, {"measurement": "Fold change in IC50", "setting": "Table 13, V048877, genotype 10I + 33F + 77I + 90M", "result": 20.5, "unit": "fold"}, {"measurement": "Fold change in IC50", "setting": "Table 13, V048880, genotype 10I + 33F + 77I + 90M", "result": 3.6, "unit": "fold"}, {"measurement": "Fold change in IC50", "setting": "Table 13, V052940, genotype 71V", "result": 0.4, "unit": "fold"}, {"measurement": "Fold change in IC50", "setting": "Table 13, V052942, genotype 10I + 71V", "result": 0.6, "unit": "fold"}, {"measurement": "Fold change in IC50", "setting": "Table 13, V052943, genotype 10I + 90M", "result": 1.8, "unit": "fold"}, {"measurement": "Fold change in IC50", "setting": "Table 13, V052944, genotype 10I + 90M", "result": 1.5, "unit": "fold"}, {"measurement": "Fold change in IC50", "setting": "Table 13, V052945, genotype 77I + 90M", "result": 1.9, "unit": "fold"}, {"measurement": "Fold change in IC50", "setting": "Table 13, V052946, genotype 71V + 90M", "result": 2.0, "unit": "fold"}, {"measurement": "Fold change in IC50", "setting": "Table 13, V052947, genotype 10I + 77I + 90M", "result": 6.9, "unit": "fold"}, {"measurement": "Fold change in IC50", "setting": "Table 13, V052948, genotype 10I + 71V + 90M", "result": 10.5, "unit": "fold"}, {"measurement": "Fold change in IC50", "setting": "Table 13, V052949, genotype 10I + 71V + 77I + 90M", "result": 2.3, "unit": "fold"}, {"measurement": "Fold change in IC50", "setting": "Table 13, V052950, genotype 33F", "result": 1.5, "unit": "fold"}, {"measurement": "Fold change in IC50", "setting": "Table 13, V052951, genotype 33F + 77I", "result": 0.3, "unit": "fold"}, {"measurement": "Fold change in IC50", "setting": "Table 13, V052953, genotype 10I + 33F + 77I", "result": 1.1, "unit": "fold"}, {"measurement": "Fold change in IC50", "setting": "Table 13, V052954, genotype 33F + 77I + 90M", "result": 2.2, "unit": "fold"}, {"measurement": "Fold change in IC50", "setting": "Table 13, V052955, genotype 33F + 71V + 90M", "result": 77.9, "unit": "fold"}, {"measurement": "Fold change in IC50", "setting": "Table 13, V052968, genotype 10L/I + 33F/L + 54L + 77I", "result": 4.7, "unit": "fold"}, {"measurement": "Fold change in IC50", "setting": "Table 13, V052969, genotype 10I + 33F + 54L + 90M", "result": 4.8, "unit": "fold"}, {"measurement": "Fold change in IC50", "setting": "Table 13, V052970, genotype 54L", "result": 2.0, "unit": "fold"}, {"measurement": "Fold change in IC50", "setting": "Table 13, V052971, genotype 10I + 54L", "result": 1.5, "unit": "fold"}, {"measurement": "Fold change in IC50", "setting": "Table 13, V052972, genotype 54L + 77I", "result": 2.4, "unit": "fold"}, {"measurement": "Fold change in IC50", "setting": "Table 13, V052973, genotype 10I + 54L + 77I", "result": 1.4, "unit": "fold"}, {"measurement": "Fold change in IC50", "setting": "Table 13, V052974, genotype 10I + 54L + 90M", "result": 3.6, "unit": "fold"}, {"measurement": "Fold change in IC50", "setting": "Table 13, V052975, genotype 10I + 54L + 71V + 90M", "result": 30.5, "unit": "fold"}, {"measurement": "Fold change in IC50", "setting": "Table 13, V052976, genotype 10I + 54L + 71V + 77I + 90M", "result": 6.5, "unit": "fold"}, {"measurement": "Fold change in IC50", "setting": "Table 13, V053832, genotype 10I + 33F", "result": 2.9, "unit": "fold"}, {"measurement": "Fold change in IC50", "setting": "Table 13, V053854, genotype 54L + 71V", "result": 2.3, "unit": "fold"}, {"measurement": "Fold change in IC50", "setting": "Virco ID 214846, genotype 10I + 33F + 54V + 71V + 77I + 90M, vs mean IC50 of wild type laboratory HIV strain", "result": 57.6, "unit": "fold"}, {"measurement": "Fold change in IC50", "setting": "Virco ID V021667, genotype 10I, vs mean IC50 of wild type laboratory HIV strain", "result": 1.2, "unit": "fold"}, {"measurement": "Fold change in IC50", "setting": "Virco ID V030496, genotype 10I + 77I, vs mean IC50 of wild type laboratory HIV strain", "result": 0.5, "unit": "fold"}, {"measurement": "Fold change in IC50", "setting": "Virco ID V048876, genotype 33F + 54V + 77I + 90M, vs mean IC50 of wild type laboratory HIV strain", "result": 5.6, "unit": "fold"}, {"measurement": "Fold change in IC50", "setting": "Virco ID V048877, genotype 10I + 33F + 77I + 90M, vs mean IC50 of wild type laboratory HIV strain", "result": 20.5, "unit": "fold"}, {"measurement": "Fold change in IC50", "setting": "Virco ID V048880, genotype 10I + 33F + 77I + 90M, vs mean IC50 of wild type laboratory HIV strain", "result": 3.6, "unit": "fold"}, {"measurement": "Fold change in IC50", "setting": "Virco ID V052940, genotype 71V, vs mean IC50 of wild type laboratory HIV strain", "result": 0.4, "unit": "fold"}, {"measurement": "Fold change in IC50", "setting": "Virco ID V052942, genotype 10I + 71V, vs mean IC50 of wild type laboratory HIV strain", "result": 0.6, "unit": "fold"}, {"measurement": "Fold change in IC50", "setting": "Virco ID V052943, genotype 10I + 90M, vs mean IC50 of wild type laboratory HIV strain", "result": 1.8, "unit": "fold"}, {"measurement": "Fold change in IC50", "setting": "Virco ID V052944, genotype 10I + 90M, vs mean IC50 of wild type laboratory HIV strain", "result": 1.5, "unit": "fold"}, {"measurement": "Fold change in IC50", "setting": "Virco ID V052946, genotype 71V + 90M, vs mean IC50 of wild type laboratory HIV strain", "result": 2.0, "unit": "fold"}, {"measurement": "Fold change in IC50", "setting": "Virco ID V052947, genotype 10I + 77I + 90M, vs mean IC50 of wild type laboratory HIV strain", "result": 6.9, "unit": "fold"}, {"measurement": "Fold change in IC50", "setting": "Virco ID V052948, genotype 10I + 71V + 90M, vs mean IC50 of wild type laboratory HIV strain", "result": 10.5, "unit": "fold"}, {"measurement": "Fold change in IC50", "setting": "Virco ID V052949, genotype 10I + 71V + 77I + 90M, vs mean IC50 of wild type laboratory HIV strain", "result": 2.3, "unit": "fold"}, {"measurement": "Fold change in IC50", "setting": "Virco ID V052950, genotype 33F, vs mean IC50 of wild type laboratory HIV strain", "result": 1.5, "unit": "fold"}, {"measurement": "Fold change in IC50", "setting": "Virco ID V052951, genotype 33F + 77I, vs mean IC50 of wild type laboratory HIV strain", "result": 0.3, "unit": "fold"}, {"measurement": "Fold change in IC50", "setting": "Virco ID V052953, genotype 10I + 33F + 77I, vs mean IC50 of wild type laboratory HIV strain", "result": 1.1, "unit": "fold"}, {"measurement": "Fold change in IC50", "setting": "Virco ID V052954, genotype 33F + 77I + 90M, vs mean IC50 of wild type laboratory HIV strain", "result": 2.2, "unit": "fold"}, {"measurement": "Fold change in IC50", "setting": "Virco ID V052955, genotype 33F + 71V + 90M, vs mean IC50 of wild type laboratory HIV strain", "result": 77.9, "unit": "fold"}, {"measurement": "Fold change in IC50", "setting": "Virco ID V052957, genotype 10I + 33F + 54V + 90M, vs mean IC50 of wild type laboratory HIV strain", "result": 13.9, "unit": "fold"}, {"measurement": "Fold change in IC50", "setting": "Virco ID V052958, genotype 10I + 33F + 54V + 77I + 90M, vs mean IC50 of wild type laboratory HIV strain", "result": 16.6, "unit": "fold"}, {"measurement": "Fold change in IC50", "setting": "Virco ID V052959, genotype 10I + 33F + 54V + 77I + 90M, vs mean IC50 of wild type laboratory HIV strain", "result": 28.5, "unit": "fold"}, {"measurement": "Fold change in IC50", "setting": "Virco ID V052960, genotype 10I + 33F + 54V + 71V + 90M, vs mean IC50 of wild type laboratory HIV strain", "result": 70.9, "unit": "fold"}, {"measurement": "Fold change in IC50", "setting": "Virco ID V052961, genotype 54V, vs mean IC50 of wild type laboratory HIV strain", "result": 1.2, "unit": "fold"}, {"measurement": "Fold change in IC50", "setting": "Virco ID V052962, genotype 10I + 54V, vs mean IC50 of wild type laboratory HIV strain", "result": 1.0, "unit": "fold"}, {"measurement": "Fold change in IC50", "setting": "Virco ID V052963, genotype 54V + 77I + 90M, vs mean IC50 of wild type laboratory HIV strain", "result": 2.0, "unit": "fold"}, {"measurement": "Fold change in IC50", "setting": "Virco ID V052964, genotype 54V + 71V + 90M, vs mean IC50 of wild type laboratory HIV strain", "result": 7.1, "unit": "fold"}, {"measurement": "Fold change in IC50", "setting": "Virco ID V052965, genotype 10I + 54V + 77I + 90M, vs mean IC50 of wild type laboratory HIV strain", "result": 12.5, "unit": "fold"}, {"measurement": "Fold change in IC50", "setting": "Virco ID V052966, genotype 10I + 54V + 71V + 90M, vs mean IC50 of wild type laboratory HIV strain", "result": 44.5, "unit": "fold"}, {"measurement": "Fold change in IC50", "setting": "Virco ID V052967, genotype 10I + 54V + 71V + 77I + 90M, vs mean IC50 of wild type laboratory HIV strain", "result": 0.7, "unit": "fold"}, {"measurement": "Fold change in IC50", "setting": "Virco ID V053358, genotype 33F + 54V + 77I + 90M, vs mean IC50 of wild type laboratory HIV strain", "result": 4.9, "unit": "fold"}, {"measurement": "Fold change in IC50", "setting": "Virco ID V053831, genotype 33F + 54V, vs mean IC50 of wild type laboratory HIV strain", "result": 129.7, "unit": "fold"}, {"measurement": "Fold change in IC50", "setting": "Virco ID V053832, genotype 10I + 33F, vs mean IC50 of wild type laboratory HIV strain", "result": 2.9, "unit": "fold"}]}]}
